pIC50: −log10 of the molar value.
Assays:
[1] = Human liver microsomes stability test; type: in vitro ADME; settings: human liver microsomes 0.5 mg/mL, compound 1.0 µM
Protocol: Human liver microsomes stability test was performed by co-incubating compounds with human liver microsomes in vitro. Firstly, a 10 mM stock solution of the test compound in DMSO solvent was prepared, and then the compound was diluted with methanol to a 0.15 mM working solution. A certain amount PBS, 12mM MgCl2, human liver microsomes (Corning), and compound working solution were mixed to achieve a compound concentration of 1.0 µM, a human liver microsome concentration of 0.5 mg/mL, and the MgCl2 concentration of 3 mM in the reaction system. A deep well plate was taken, 270 µL microsomal buffer mixture solution was added to each well, and then 30 µL preheated 10 mM NADPH solution was added to initiate the reaction, and it was incubated at 37 °C. At 0, 5, 15, 30, and 60 min of incubation, 200 µL methanol: acetonitrile = 1: 1 containing an internal standard was added to the corresponding well to terminate the reaction. After the reaction was terminated at the last 60 min, the deep well plate was subjected to vortex vibration for 5 min (600 rpm/min), and then centrifugated for 10 min. After centrifugation, the supernatant was taken, and purified water was added at a 1:1 ratio for LC-MS/MS detection, and the peak area ratio of the compound to the internal standard at each time point was obtained, and the peak area ratio of the compound at 5, 15, 30, and 60 min was compared with the peak area ratio at 0 minute to calculate the remaining percentage of the compound at each time point, and T1/2 was calculated using Graphpad 7 software. Table 2 Results of human liver microsomes stability test

[2] = target: Ba/F3-TEL-FGFR2 (Homo sapiens, UniProt P21802+P41212); test: Cell viability (proliferation inhibition) of Ba/F3 cells, CellTiter Glo; settings: read-out: Ba/F3 cell FGFR2 (IC50 nM), 72 h
Sequence of Ba/F3-TEL-FGFR2 (P21802 481-770 limits assumed, one chain of several): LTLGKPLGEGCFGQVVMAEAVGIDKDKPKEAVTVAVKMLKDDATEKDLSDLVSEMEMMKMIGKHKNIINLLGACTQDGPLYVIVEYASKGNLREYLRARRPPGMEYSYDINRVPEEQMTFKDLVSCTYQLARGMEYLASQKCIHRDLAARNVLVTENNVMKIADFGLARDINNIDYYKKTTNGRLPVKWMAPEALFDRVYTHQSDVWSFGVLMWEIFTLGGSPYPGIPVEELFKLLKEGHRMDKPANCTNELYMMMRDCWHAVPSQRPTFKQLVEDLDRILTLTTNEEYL

[3] = target: Ba/F3-TEL-FGFR1 (Homo sapiens, UniProt P11362+P41212); test: as above; settings: read-out: Ba/F3 cell FGFR1 (IC50 nM), 72 h
Sequence of Ba/F3-TEL-FGFR1 (P11362 478-767 limits assumed, one chain of several): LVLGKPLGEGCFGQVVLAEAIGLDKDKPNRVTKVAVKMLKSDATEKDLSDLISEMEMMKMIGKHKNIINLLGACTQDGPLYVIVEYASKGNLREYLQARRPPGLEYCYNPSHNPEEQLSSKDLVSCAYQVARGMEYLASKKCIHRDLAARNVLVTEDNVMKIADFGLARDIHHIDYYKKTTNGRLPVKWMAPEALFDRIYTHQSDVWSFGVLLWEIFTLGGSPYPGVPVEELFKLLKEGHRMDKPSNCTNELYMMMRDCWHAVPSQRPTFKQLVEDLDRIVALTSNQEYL

[4] = target: Ba/F3-TEL-FGFR3 (Homo sapiens, UniProt P22607+P41212); test: as above; settings: read-out: Ba/F3 cell FGFR3 (IC50 nM), 72 h
Sequence of Ba/F3-TEL-FGFR3 (P22607 472-761 limits assumed, one chain of several): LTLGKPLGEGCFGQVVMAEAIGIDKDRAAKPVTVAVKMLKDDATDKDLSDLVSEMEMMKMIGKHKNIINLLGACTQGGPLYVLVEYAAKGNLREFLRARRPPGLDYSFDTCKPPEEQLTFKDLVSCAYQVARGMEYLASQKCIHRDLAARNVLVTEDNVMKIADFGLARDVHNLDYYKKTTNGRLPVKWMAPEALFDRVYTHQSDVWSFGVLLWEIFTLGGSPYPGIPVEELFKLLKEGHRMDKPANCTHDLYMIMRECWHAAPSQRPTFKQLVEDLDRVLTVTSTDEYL

[5] = Pharmacokinetic test in rats; type: in vivo, male SD rats; settings: rat, plasma, oral gavage administration, 10 mg/kg
Protocol: Rat pharmacokinetic experiments were performed using male SD rats, 180-220g, provided by Beijing Vital River Laboratory Animal Technology Co., Ltd. 3 rats that were fasted overnight were taken, and administered orally by gavage (10 mg/kg). Blood samples were collected before administration, as well as 5, 15, 30 min and 1, 2, 4, 6, 8, 24 h after administration; another 3 rats were taken and administered intravenously (1 mg/kg), blood samples were collected before administration, as well as 5, 15, 30 min and 1, 2, 4, 6, 8, 24 h after administration. Blood sample was centrifuged at 6800g, 2-8 °C for 6 min, and plasma was collected, and stored at -80 °C. Plasma of each time point was taken, 10 times the amount of 50% methanol acetonitrile solution containing internal standard was added, and mixed by vortex for 5 min, centrifuged at 18000 rpm at 4 °C for 10 min, and the supernatant was taken directly for LC-MS/MS analysis. The main pharmacokinetic parameters were analyzed using WinNonlin8.2 software for non compartmental model analysis. Table 3: pharmacokinetic test in rats results of test compounds

[6] = Rat liver cells metabolic stability; type: in vitro ADME; settings: rat liver cells 0.5 × 10^6 cells/mL; for hepatocyte CLint / half-life: hepatocytes; for hepatocyte CLint: read-out: in vitro CLint (µL/min/10^6 cells); for half-life: read-out: in vitro t1/2
Protocol: Test compound and control drug verapamil powder were prepared into […] stock solution using DMSO, and they were diluted with 50% acetonitrile/50% water to 100 µM working solution before use.
• 1) 49.5 mL Williams E Medium and 0.5 mL glutaMAX were mixed as incubation medium. The liver cell resuscitation solution and incubation solution were preheated in a 37 °C water bath for at least 15 min before use. • 2) A tube of liver cells stored at ultra-low temperature was taken and ensured that they remain in a low-temperature frozen state before resuscitation. The liver cells were placed quickly in a 37 °C water bath and shaken gently until all ice crystals were dispersed. • 3) The contents of the liver cells tubes were poured into a centrifuge tube containing 50 mL of resuscitation medium, and they were centrifuged at 100 g for 10 min. After centrifugation, the resuscitation medium was aspirated, and sufficient incubation medium was added to obtain a cell suspension with a cell density of approximately 1.0 × 10^6 cells/mL. • 4) AO/PI staining was used to count liver cells and determine viable cell density, the survival rate of liver cells must be greater than 75%. The liver cell suspension was diluted with incubation medium to a viable cell density of 0.5 × 10^6 cells/mL.
• 1) 198 µL live cell suspension was transferred to a 96 well deep well plate, and the deep well plate was placed on a vortex and preheat in the incubator for 10 min. • 2) 2 µL 100 µM test compound or positive control compound was added to each well for reaction initiation, and the deep well plate was placed back on the incubator vortex. • 3) The incubation plate was placed into the incubator for incubation. 25 µL suspension was taken at 0.5, 15, 30, 60, 90, and 120 min, and 6-fold (150 µL) acetonitrile containing internal standard quencher (100 nM alprazolam, 200 nM caffeine, and 100 nM toluenesulfonylbutamide) was added to a new 96 well plate to terminate the reaction. The plate was vortexed for 5 min and centrifuged at 3220 rpm and 4 °C for 45 min to precipitate the protein. 100 µL of supernatant was transferred to the sample plate, and 100 µL pure water was added and mixed well for UPLC-MS/MS analysis. All incubation systems were conducted in a dual parallel manner.
All data was calculated using Microsoft Excel software. Peak area was detected by extracting ion chromatogram. In vitro half-life (T1/2) and in vitro clearance rate (in µL/min/10^6 cells) of the parent drug were detected by linearly fitting of the natural logarithm of the […] percentage of the parent drug versus time. Table 6 Results of rat liver cell stability test

[7] = target: T1, CYP1A2 (Homo sapiens, UniProt P05177); test: Cytochrome P450 inhibition in human liver microsomes
T1 sequence (P05177 1-516): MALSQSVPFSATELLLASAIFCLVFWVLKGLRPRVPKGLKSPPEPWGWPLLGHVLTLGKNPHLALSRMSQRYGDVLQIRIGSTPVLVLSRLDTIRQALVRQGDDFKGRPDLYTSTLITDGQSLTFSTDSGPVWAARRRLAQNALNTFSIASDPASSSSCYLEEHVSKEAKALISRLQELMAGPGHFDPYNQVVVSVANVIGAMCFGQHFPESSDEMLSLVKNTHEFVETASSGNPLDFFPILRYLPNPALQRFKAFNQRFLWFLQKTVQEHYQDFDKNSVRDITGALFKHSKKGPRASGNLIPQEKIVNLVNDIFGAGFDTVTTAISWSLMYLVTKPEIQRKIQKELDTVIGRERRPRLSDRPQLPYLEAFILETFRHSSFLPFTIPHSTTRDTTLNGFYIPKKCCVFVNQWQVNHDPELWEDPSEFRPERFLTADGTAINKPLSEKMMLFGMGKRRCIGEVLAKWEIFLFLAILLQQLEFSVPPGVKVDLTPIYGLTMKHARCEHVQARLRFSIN
Protocol: (§3) Preparation of positive control inhibitor and compound working solution: 16 µL inhibitor stock solution or compound stock solution for each CYP subtype were taken and added to 24 µL DMSO. Then, they were diluted gradually three times with diluent to obtain different concentrations of test sample/positive control inhibitor working solution (7 concentrations each except for blank)
(§4) Preparation of test sample group working solution: The human liver microsomal working solution was divided into 96 well plates at 796 µL per well, and then 4 µL test sample working solution was added.
(§5) Preparation of positive control group working solution: The human liver microsomal working solution was divided into 96 well plates at 199 µL per well, and then 1 µL positive control inhibitor working solution was added.
(§6) Blank solvent working solution preparation: The human liver microsomal working solution was divided into 96 well plates at 199 µL per well, and then 1 µL DMSO was added.
(§7) (a) 30 µL test sample/positive control inhibitor working solution or 30 µL blank solvent working solution per well were transferred into a 96 well plate, and 15 µL substrate working solution of different enzyme subtypes transferred into each well, and mixed evenly. (b) The above incubation plates and 4 x NADPH working solution were preheated at 37 °C for 5 min. (c) 15 µL preheated 4 × NADPH working solution per well was transferred into the incubation plate, and the reaction initiated, and continued to be incubated at 37 °C.
(§8) (d) After the reaction time was reached, 180 µL termination solution was added to terminate the reaction. […] (f) After centrifugation, 80 µL supernatant was taken and added to 120 µL ultrapure water, and after it was mixed evenly, LC-MS/MS was used to analyze the metabolites of the probe substrate.

[8] = target: CYP2C9 (Homo sapiens, UniProt P11712); test: as above
Sequence of CYP2C9 (P11712 whole entry): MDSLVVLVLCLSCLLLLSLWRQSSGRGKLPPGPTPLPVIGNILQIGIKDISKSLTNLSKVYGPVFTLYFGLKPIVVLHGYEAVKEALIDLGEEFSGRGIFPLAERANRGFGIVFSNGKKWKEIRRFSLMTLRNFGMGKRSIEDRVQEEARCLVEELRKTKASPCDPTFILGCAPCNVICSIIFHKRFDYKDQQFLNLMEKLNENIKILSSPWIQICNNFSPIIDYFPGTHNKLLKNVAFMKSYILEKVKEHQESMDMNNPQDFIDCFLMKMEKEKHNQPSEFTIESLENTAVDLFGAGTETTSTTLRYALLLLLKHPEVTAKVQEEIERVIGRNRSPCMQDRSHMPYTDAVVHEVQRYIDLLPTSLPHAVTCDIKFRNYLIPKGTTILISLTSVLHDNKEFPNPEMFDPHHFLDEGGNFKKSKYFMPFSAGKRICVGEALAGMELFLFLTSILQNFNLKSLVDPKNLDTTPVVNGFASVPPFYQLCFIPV
Protocol: as §3, §4, §5, §6, §7, §8

[9] = target: CYP2C19 (Homo sapiens, UniProt P33261); test: as above
Sequence of CYP2C19 (P33261 whole entry): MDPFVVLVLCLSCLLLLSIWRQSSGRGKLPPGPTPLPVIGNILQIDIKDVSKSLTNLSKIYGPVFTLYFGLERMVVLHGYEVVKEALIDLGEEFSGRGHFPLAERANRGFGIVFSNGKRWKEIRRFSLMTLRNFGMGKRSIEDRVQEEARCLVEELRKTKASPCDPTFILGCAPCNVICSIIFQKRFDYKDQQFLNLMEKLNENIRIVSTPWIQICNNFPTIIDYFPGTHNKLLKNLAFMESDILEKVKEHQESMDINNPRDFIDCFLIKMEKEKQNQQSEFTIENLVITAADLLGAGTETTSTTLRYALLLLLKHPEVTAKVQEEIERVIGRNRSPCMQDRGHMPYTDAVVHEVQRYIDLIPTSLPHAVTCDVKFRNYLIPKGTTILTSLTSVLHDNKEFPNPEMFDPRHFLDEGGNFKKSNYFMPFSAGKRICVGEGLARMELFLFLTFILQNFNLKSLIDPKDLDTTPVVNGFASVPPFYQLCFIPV
Protocol: as §3, §4, §5, §6, §7, §8

[10] = target: CYP2D6 (Homo sapiens, UniProt P10635); test: as above
Sequence of CYP2D6 (P10635 whole entry): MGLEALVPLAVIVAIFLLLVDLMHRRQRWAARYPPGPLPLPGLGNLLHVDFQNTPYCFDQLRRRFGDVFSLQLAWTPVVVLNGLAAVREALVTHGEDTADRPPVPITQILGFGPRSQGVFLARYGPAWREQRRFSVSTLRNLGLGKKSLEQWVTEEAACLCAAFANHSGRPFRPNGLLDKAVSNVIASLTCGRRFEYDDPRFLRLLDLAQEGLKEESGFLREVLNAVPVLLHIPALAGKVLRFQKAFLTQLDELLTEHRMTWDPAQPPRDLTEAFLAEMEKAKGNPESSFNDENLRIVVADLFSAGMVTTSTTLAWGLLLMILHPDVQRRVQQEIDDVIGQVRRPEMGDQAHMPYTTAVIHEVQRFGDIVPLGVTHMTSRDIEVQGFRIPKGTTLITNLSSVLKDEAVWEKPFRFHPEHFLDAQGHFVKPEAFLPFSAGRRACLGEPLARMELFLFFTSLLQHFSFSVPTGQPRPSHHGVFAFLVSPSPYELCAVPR
Protocol: as §3
(§9) Preparation of liver microsomal working solution: 300 µL human liver microsomes (20.0 mg/mL) was taken and added to 29700 µL PBS and mixed well, and the concentration of the prepared human liver microsomal working solution was 0.200 mg/mL.
(§10) Preparation of 4 x NADPH working solution: A certain weight of NADPH tetrasodium salt was weighted and dissolved to a suitable volume of PBS to obtain NADPH working solution, with a concentration of 8.00 mM.
as §4, §5, §6
(§11) (a) 30 µL test sample/positive control inhibitor working solution or 30 µL blank solvent working solution per well were transferred into a 96 well plate, and 15 µL substrate working solution of different enzyme subtypes transferred into each well, and mixed evenly. (b) The above incubation plates and 4 x NADPH working solution were preheated at 37 °C for 5 min. (c) 15 µL preheated 4 × NADPH working solution per well was transferred into the incubation plate, and the reaction initiated, and continued to be incubated at 37 °C. The incubation time is as follows:
as §8

[11] = target: CYP3A4 (Homo sapiens, UniProt P08684); test: as above
Sequence of CYP3A4 (P08684 whole entry): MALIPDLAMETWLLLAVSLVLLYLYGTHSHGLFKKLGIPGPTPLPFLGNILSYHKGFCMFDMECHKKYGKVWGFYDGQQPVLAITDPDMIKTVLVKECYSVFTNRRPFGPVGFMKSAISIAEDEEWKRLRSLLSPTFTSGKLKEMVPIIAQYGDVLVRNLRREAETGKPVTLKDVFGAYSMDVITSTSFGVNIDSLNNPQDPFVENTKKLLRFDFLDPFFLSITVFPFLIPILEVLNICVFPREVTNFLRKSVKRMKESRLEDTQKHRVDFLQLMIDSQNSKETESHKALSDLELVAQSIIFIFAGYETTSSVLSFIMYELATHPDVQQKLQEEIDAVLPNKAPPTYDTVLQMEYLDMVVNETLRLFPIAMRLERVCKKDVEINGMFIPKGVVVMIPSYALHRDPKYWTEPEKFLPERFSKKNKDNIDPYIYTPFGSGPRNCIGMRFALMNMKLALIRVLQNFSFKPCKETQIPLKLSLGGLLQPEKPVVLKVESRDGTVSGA
Protocol: as §3, §9, §10, §4, §5, §6, §11, §8

[12] = target: hERG (Homo sapiens, UniProt Q12809); test: Manual patch clamp, hERG channel current in HEK-293 cells
Sequence of hERG (Q12809 whole entry): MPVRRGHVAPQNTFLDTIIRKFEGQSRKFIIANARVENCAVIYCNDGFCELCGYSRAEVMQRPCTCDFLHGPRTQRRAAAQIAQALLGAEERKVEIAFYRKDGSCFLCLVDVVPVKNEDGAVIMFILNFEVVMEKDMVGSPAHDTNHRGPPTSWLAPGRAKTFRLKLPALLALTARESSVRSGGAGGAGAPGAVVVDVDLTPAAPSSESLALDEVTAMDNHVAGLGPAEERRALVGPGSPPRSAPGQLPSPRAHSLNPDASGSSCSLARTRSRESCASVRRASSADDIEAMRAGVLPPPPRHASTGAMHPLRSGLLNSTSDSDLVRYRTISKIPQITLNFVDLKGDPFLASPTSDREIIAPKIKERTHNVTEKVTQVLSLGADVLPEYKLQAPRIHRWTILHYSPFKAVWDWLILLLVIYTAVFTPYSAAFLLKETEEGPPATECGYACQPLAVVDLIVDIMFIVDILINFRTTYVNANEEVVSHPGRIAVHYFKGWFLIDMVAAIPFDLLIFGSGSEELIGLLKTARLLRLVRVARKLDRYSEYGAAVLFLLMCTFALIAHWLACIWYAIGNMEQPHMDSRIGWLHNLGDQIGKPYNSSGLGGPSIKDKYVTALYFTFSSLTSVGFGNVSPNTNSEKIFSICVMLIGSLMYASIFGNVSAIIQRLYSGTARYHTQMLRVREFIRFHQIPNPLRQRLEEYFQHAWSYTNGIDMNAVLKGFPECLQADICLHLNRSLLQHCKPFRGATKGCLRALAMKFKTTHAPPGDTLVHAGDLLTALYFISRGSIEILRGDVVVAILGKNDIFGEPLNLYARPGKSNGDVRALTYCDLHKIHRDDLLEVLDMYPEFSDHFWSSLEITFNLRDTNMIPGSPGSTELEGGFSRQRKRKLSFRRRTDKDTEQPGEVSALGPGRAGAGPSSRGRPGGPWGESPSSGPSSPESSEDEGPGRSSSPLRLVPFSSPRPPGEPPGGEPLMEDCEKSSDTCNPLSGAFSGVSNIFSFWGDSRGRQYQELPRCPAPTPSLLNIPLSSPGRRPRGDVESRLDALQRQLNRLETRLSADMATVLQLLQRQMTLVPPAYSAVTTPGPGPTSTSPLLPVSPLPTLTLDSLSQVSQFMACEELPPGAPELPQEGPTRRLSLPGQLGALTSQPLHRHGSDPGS
Protocol: The test compound diluents were diluted with extracellular fluid containing 0.5% F68 in sequence to prepare working solutions of 30 µM, 10 µM, 3 µM, 1 µM and 0.3 µM, and 0.3% DMSO was ensured.
The test compound diluents were diluted with extracellular fluid containing 0.5% F68 in sequence to prepare working solutions with concentrations of 30 µM, 10 µM, 3 µM, 1 µM and 0.3 µM, and 0.3% DMSO was ensured.
Cells were inoculated into 6 cm cell culture dishes, with a total of 2.5 × 10^5 cells per dish (final volume: 5 mL). To maintain the electrophysiological activity of cells, the cell density must not exceed 80%.
The voltage stimulation protocol for recording hERG currents using whole cell patch clamp was as follows: when a whole cell seal was formed, the cell membrane voltage was clamped at -80 mV. […] Data was collected repeatedly every 10 s to observe the effect of the drug on hERG tail current. The experimental data was collected by IPA amplifier (Sutter Instrument) and stored in SutterPatch (with Igor Pro) software.
When the hERG current recorded by the whole cell was stabilized, administration began, and each drug concentration acted for about 5 min (or until the current was stabilized), and then the next concentration was detected, multiple concentrations were detected for each test compound. The cover glass covered with cells was placed in the recording bath under an inverted microscope, the blank control solution and the test compound working solution sequentially flowed through the recording bath from low concentration to high concentration using gravity perfusion to act on the cells, liquid exchange was performed using a peristaltic pump during recording. The current of each cell detected in the extracellular fluid without the compound serves as its own control group. Each concentration should be independently tested twice using at least two cells. All electrophysiological tests were performed at room temperature.

[13] = test system: A204 cells; test: Proliferation inhibition, CCK-8 colorimetric method; type: cell-based; settings: Homo sapiens, 72 h
Protocol: (§1) CCK-8 (Bimake/B34304) colorimetric method was used to detect the in vitro proliferation inhibitory effect of compounds on suspended or adherent cells in this experiment. The specific experimental steps were as follows: • 1) Cell plating: SNU16 and A204 tumor cells (cells from Shanghai Institute of Organic Chemistry, Chinese Academy of Sciences) in the logarithmic growth phase were digested and centrifuged for trypan blue counting, and the cells were seeded into a transparent 96 well plate at a density of 4000 cells/100 µ 1/well. […] The test compound and control compound stock solution were diluted with the corresponding culture medium required for cell culture (with or without solvent DMSO) to obtain a series of working solutions, with concentrations of twice the final concentration. The solvent DMSO contents in each concentration group were consistent with that of the solvent control group. The final concentration of A204 cells started at 10 µM and was diluted twice.
(§2) Calculation of cell survival rate: Cell survival rate (%)=[(As-Ac)/(Ab-Ac)] × 100%] (As: experimental well; Ab: Solvent control well; Ac: Blank well).

[14] = test system: SNU16 cells; test: as above; type: cell-based; settings: Homo sapiens, SNU-16, 72 h
Protocol: as §1, §2

For `C=C(C)C(=O)Nc1ccc(-c2c(-c3ccc(N=S4(=O)CCCCC4)cc3)c3c(N)ncnc3n2C)cc1` [Compound 4, N-(4-(4-amino-7-methyl-5-(4-(1-oxotetrahydro-2H-1λ^6-thiopyran-1-imino)phenyl) -7H-pyrrolo [2,3-d]pyrimidin-6-yl)phenyl) methacrylamide], the CLint scaled at 1 µM [1] was 14.6 mL/min/kg, the half-life at 1 µM [1] was 85.6 min and the “Remaining percentage of compound after 60 min of incubation (%)” value (from here on “Remaining percentage of compound … (%)”) ([1]; 60 min) was 61.6%. For the same molecule, the IC50 [2] was 9.9 nM, the IC50 [3] was 2370 nM and the IC50 [4] was 3360 nM.

In the case of `C=C(C)C(=O)Nc1ccc(-c2c(-c3ccc(N=S4(=O)CCCC4)cc3)c3c(N)ncnc3n2C)c(F)c1` [Compound 24], the AUC(0-t) [5] was 871 ng·h/mL, the Cmax [5] was 270 ng/mL and the Tmax [5] was 15 min. For the same molecule, the half-life [5] was 85.8 min, the hepatocyte CLint [6] was 37.1 µL/min/1e6 cells and the half-life [6] was 37.3 min. The “Remaining percentage of compound … (%)” value [6] was 37.55%, the pIC50 [7] was under 5.00 and the pIC50 [8] was 4.54. It also gave a pIC50 [9] of 4.71, a pIC50 [10] of 4.85 and a pIC50 [11] of 4.97. For the same molecule, the pIC50 [12] was under 5.00, the inhibition at 0.3 µM ([12]; human, hek-293 cells) was -1.24% and the inhibition at 1 µM ([12]; human, hek-293 cells) was 7.73%. The inhibition at 3 µM ([12]; human, hek-293 cells) was 10.2%, the inhibition at 10 µM ([12]; human, hek-293 cells) was 32.2% and the inhibition at 30 µM ([12]; human, hek-293 cells) was 14.2%. It also gave an IC50 [2] of 2.1 nM and an IC50 [3] of 1910 nM.

Molecule `C=C(C)C(=O)Nc1ccc(-c2c(-c3ccc(N=S(=O)(CC)CC)cc3)c3c(N)ncnc3n2C)c(F)c1` [Compound 58] has an AUC(0-t) [5] of 1420 ng·h/mL, a Cmax [5] of 604 ng/mL and a Tmax [5] of 30 min. It also gave a half-life [5] of 191 min, an IC50 [13] of 1270 nM and an IC50 [14] of 9.52 nM. For the same molecule, the pIC50 [7] was under 5.00, the pIC50 [8] was 4.53 and the pIC50 [9] was 5.27. It also gave a pIC50 [10] of 5.01, a pIC50 [11] of under 5.00 and an IC50 [2] of 3 nM. The IC50 [3] was 2030 nM and the IC50 [4] was 442 nM.

`[2H]C([2H])([2H])n1c(-c2ccc(NC(=O)C(=C)C)cc2F)c(-c2ccc(N=S3(=O)CCCC3)cc2)c2c(N)ncnc21` [Compound 83, N-(4-(4-amino-7-(methyl-d3)-5-(4-(1-oxotetrahydro-1 λ^6-thiophene-1-imino)phenyl)-7H-pyrrolo[2,3-d]pyrimidin-6-yl)-3-fluorophenyl)methacrylamide] showed an AUC(0-t) [5] of 1480 ng·h/mL, a Cmax [5] of 414 ng/mL and a Tmax [5] of 19.8 min. It also gave a half-life [5] of 112 min, a hepatocyte CLint [6] of 37.3 µL/min/1e6 cells and a half-life [6] of 37.1 min. The “Remaining percentage of compound … (%)” value [6] was 35.86%, the pIC50 [7] was under 5.00 and the pIC50 [8] was 4.84. It also gave a pIC50 [9] of 4.85, a pIC50 [10] of 5.06 and a pIC50 [11] of 4.94. The IC50 [2] was 1.1 nM, the IC50 [3] was 661 nM and the IC50 [4] was 319 nM.

Source: patent publication EP4553077A1 (Kinoteck Therapeutics Co., Ltd, priority 2022, dated 2024)
